Source: patent US20230338342A1, “METHODS OF TREATING RIBONUCLEOTIDE REDUCTASE-RELATED DISEASES WITH A RIBONUCLEOTIDE REDUCTASE INHIBITOR” (Taiho Pharmaceutical Co., Ltd., priority 2020, published 2023)

Tests used:
[1] = system: Human acute myelocytic leukemia (AML) cell line MV-4-11 cells; assay: Anti-tumor effect in MV-4-11 xenograft under various dosing regimens; type: in vivo, male nude mice; details: for effect of reducing tumor volume (relative tumor volume, RTV): Day 15, vs Control Group
Experimental: (§1) Anti-tumor Effect and body weight change in Various Dosing Regimens Human acute myelocytic leukemia (AML) cell line MV-4-11 cells (American Type Culture Collection CRL-9591™) were implanted in the right thorax of male nude mice (CLEA Japan, Inc.). After implantation of the tumor, the major axis (mm) and minor axis (mm) of the tumor were measured, and tumor volume (TV) was calculated for each mouse. Then, the mice were assigned to the following groups, Control group (○), Continuous Dosing Group (●: 100 mg/kg/day; ◊: 150 mg/kg/day) and 1-week ON+1-week OFF Dosing Group (▲: 200 mg/kg/day; ◆: 300 mg/kg/day), so that the average TV of each group was equivalent. The day in which the grouping (n=5) was conducted was taken as Day 0.
(§2) 5-chloro-2-(N-((1S,2R)-2-(6-fluoro-2,3-dimetylphenyl)-1-(5-oxo-4,5-dihydro-1,3,4-o xadiazol-2-yl)propyl)sulfamoyl)benzamide (Compound A) was suspended in 5 mg/mL hypromellose solution to provide appropriate test samples for 100 mg/kg, 150 mg/kg, 200 mg/kg, and 300 mg/kg dosing regimen. Animals of the Control group were not treated.
To mice in the Continuous Dosing Group, 100 mg/kg/day or 150 mg/kg/day of Compound A was orally administered once daily from Day 1 to Day 14. The total dosage for mice in the Continuous Dosing Group administered 100 mg/kg/day (Group C-1) is 1400 mg/kg, and the total dosage for mice in the Continuous Dosing Group administered 150 mg/kg/day (Group C-2) is 2100 mg/kg.
To mice in the 1-week ON+1-week OFF Dosing Group, 200 mg/kg/day or 300 mg/ kg/day of Compound A was orally administered once daily from Day 1 to Day 7, and not administered from Day 8 to Day 14, which corresponds to a resting period of 7 days (1 week) for recovery. The total dosage for mice in the 1-week ON+1-week OFF Dosing Group administered 200 mg/kg/day (Group I-1) is 1400 mg/kg, and the total dosage for mice in the 1-week ON+1-week OFF Dosing Group administered 300 mg/ kg/day (Group I-2) are 2100 mg/kg.
On Days 4, 8, 11 and 15, using the following formula: TV (mm^3) = (major axis x minor axis^2) / 2, relative tumor volume (RTV) was calculated as an index of anti-tumor effect during the dosing period for each group (FIG. 1).

[2] = Body weight change as index of toxicity in MV-4-11 tumor-bearing mice; type: in vivo, male nude mice; details: up to Day 15
Experimental: as §1
as §2, with “treated. […]” for “treated.”
On the other hand, the body weight (BW) was measured on Days 4, 8, 11 and 15, and the average body weight change (BW change, %) relative to the body weight on Day 0 was calculated by the following formula, as an index of toxicity during the dosing period: BW change (%) = [(BW on Day n) - (BW on Day 0)] / (BW on Day 0) x 100.

22 cell lines = assay: Cell proliferation assay (CellTiter-Glo) and correlation with SLFN11 mRNA expression; type: cell-based; details: 10 micro mol/L, 3 days of exposure, Pearson's correlation
From the text: The HEL, NUGC-3, and RPMI8226 cell lines were obtained from the Japanese Collection of Research Bioresources. The 786-O, CFPAC-1, DU145, HCC1599, HCC1806, HCC38, HCT116, HL-60, K-562, MSTO-211H, MV-4-11, NCI-H460, NCI-H2170, and THP-1 cell lines were obtained from the ATCC. The A2780 and COLO 792 cell lines were obtained from the European Collection of Authenticated Cell Cultures. The A549, A673, and MCF-7 cell lines were obtained from DS Pharma Biomedical Co., Ltd.
Cell proliferation assay was performed as reported previously (Hasako, S., et al. Mol Cancer Ther 17, 1648-1658 (2018)). Briefly, cells were plated and incubated for 1 day, followed by 3 days of exposure to the compound. After exposure to Compound A, viable cells were detected by using the CellTiter-Glo luminescent cell viability assay (Promega). The experiment was performed in triplicates.
Correlation analysis of SLFN11 expression and Compound A cytotoxicity was performed using Pearson’s correlation coefficient (P < 0.05) in JMP 13 software. The gene expression data of cell lines were available online CCLE (http://www.broadinstitute.org/ccle/home). Compound A cytotoxicity data from 22 cell lines in Table 5 were used for correlation analysis (data for correlation was not shown).

A673 cells [3] = assay: Cell proliferation assay in A673 cells treated with siRNA against SLFN11; type: cell-based; details: siSLFN11-1 and siSLFN11-2 vs siControl, 72 h treatment
Experimental: (§3) A673 cells were transfected with 1 nM siRNAs for 24 h using Lipofectamine® RNAiMAX Reagent (Thermo Fisher Scientific Inc.) and then re-seeded onto a 96-well plate for cell proliferation assay and caspase induction assay and onto dishes for immunoblotting analysis. siRNAs were obtained from Thermo Fisher Scientific Inc. as follows: Silencer® Select Negative Control #1 siRNA (#4390843 used as siControl), SLFN11 Silencer® Select Pre-designed siRNA (#s40703 used as siSLFN11-1, and #s40704 as siSLFN11-2).
Cell proliferation assay was performed as reported previously (Hasako, et al., ibid.). Briefly, cells treated with siRNAs for 24 h were plated onto 96 well plate and incubated for 24 h, followed by 3 days of exposure to the compound. After compound exposure, viable cells were detected by using the CellTiter-Glo luminescent cell viability assay (Promega).

A673 cells [4] = assay: Caspase induction analysis (Caspase-Glo 3/7) in A673 cells treated with siRNA against SLFN11; type: cell-based; details: A673 cells transfected with siRNA against SLFN11, 24 h treatment
Experimental: as §3
Caspase induction analysis was performed as reported previously (Hasako., et al., ibid). Briefly, the cells with siRNAs for 24 h were seeded onto 96 well plate, incubated for24 h, and then treated with Compound A for 24 h. Caspase induction was detected by using the Caspase-Glo 3/7 assay (Promega). Relative caspase-3/7 activation was calculated by applying the correction with respect to cell number. The experiment was performed in triplicates.

RNR = biological target: T1, RNR (Homo sapiens, UniProt P23921+P31350); details: background art; cited from earlier work
T1 sequence (P23921 1-792): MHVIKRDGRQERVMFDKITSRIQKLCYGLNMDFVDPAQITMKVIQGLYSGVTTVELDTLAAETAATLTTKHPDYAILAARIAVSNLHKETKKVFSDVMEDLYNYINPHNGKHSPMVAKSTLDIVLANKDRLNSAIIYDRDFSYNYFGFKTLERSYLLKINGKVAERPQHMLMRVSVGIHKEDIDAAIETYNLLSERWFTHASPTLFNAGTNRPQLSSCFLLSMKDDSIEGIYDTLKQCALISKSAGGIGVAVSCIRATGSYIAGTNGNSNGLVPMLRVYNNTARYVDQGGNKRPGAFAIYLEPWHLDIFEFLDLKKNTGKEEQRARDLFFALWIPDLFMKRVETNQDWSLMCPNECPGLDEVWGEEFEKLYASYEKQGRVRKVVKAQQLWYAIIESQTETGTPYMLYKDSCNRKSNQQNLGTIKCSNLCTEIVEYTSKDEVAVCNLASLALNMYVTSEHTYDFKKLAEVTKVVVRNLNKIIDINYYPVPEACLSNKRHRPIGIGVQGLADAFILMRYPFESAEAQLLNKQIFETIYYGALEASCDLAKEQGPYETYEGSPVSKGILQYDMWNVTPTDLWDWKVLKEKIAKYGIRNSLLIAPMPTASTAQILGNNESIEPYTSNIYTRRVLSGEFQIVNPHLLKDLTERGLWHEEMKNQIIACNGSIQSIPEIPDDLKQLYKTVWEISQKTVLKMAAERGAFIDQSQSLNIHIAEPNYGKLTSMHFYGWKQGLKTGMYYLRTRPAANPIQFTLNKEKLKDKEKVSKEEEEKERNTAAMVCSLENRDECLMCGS
T1 sequence (P31350 1-389): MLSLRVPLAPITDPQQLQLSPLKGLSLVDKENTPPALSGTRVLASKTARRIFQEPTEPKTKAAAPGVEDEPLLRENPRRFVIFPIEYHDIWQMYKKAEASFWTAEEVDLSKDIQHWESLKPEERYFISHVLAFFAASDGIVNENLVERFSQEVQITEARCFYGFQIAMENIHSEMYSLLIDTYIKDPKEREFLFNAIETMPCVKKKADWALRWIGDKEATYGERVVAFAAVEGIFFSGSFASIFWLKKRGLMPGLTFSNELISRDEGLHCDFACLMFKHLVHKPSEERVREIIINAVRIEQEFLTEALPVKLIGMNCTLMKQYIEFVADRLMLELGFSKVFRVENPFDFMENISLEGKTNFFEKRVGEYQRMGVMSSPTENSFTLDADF

Row | SMILES | effect of reducing tumor volume (relative tumor volume, RTV) ([1]; 1-week ON+1-week OFF Dosing Group, 200 or 300 mg/kg/day orally once daily Day 1 to Day 7, rest Day 8 to Day 14) | effect of reducing tumor volume (relative tumor volume, RTV) ([1]; Continuous Dosing Group, 100 or 150 mg/kg/day orally once daily Day 1 to Day 14) | effect of reducing tumor volume, Group I-1 compared with Group C-1 ([1]; total dosage 1400 mg/kg, I-1 200 mg/kg/day 1-week ON+1-week OFF vs C-1 100 mg/kg/day continuous) | effect of reducing tumor volume, Group I-2 compared with Group C-2 ([1]; total dosage 2100 mg/kg, I-2 300 mg/kg/day 1-week ON+1-week OFF vs C-2 150 mg/kg/day continuous) | body weight change (BW change) ([2]; 1-week ON+1-week OFF Dosing Group (Groups I-1 and I-2), 200 or 300 mg/kg/day orally Day 1 to Day 7) | body weight change (BW change) ([2]; Continuous Dosing Group (Groups C-1 and C-2), 100 or 150 mg/kg/day orally Day 1 to Day 14) | correlation between SLFN11 mRNA expression and relative cell growth (%) (22 cell lines) | cytotoxic effect (cell growth) after SLFN11 knockdown (A673 cells [3]) | caspase-3/7 activation after SLFN11 knockdown (A673 cells [4]) | RNR inhibitory activity (RNR)
1 | Cc1ccc(F)c([C@@H](C)[C@H](NS(=O)(=O)c2ccc(Cl)cc2C(N)=O)c2n[nH]c(=O)o2)c1C [Compound A, 5-chloro-2-(N-((1S,2R)-2-(6-fluoro-2,3-dimetylphenyl)-1-(5-oxo-4,5-dihydro-1,3,4-oxadiazol-2-yl)propyl)sulfamoyl)benzamide] | shows the effect of reducing tumor volume compared with Control Group | shows the effect of reducing tumor volume compared with Control Group | tends to be higher than Group C-1, though the difference is not statistically significant | seems to be similar | shows drastic recovery in body weight | does not show satisfactorily recovery in terms of body weight loss | a significant correlation | SLFN11 knockdown significantly suppressed the cytotoxic effect | suppression of Compound A-induced caspase-3/7 activation | potent
2 | NC(=O)NO [HU, hydroxyurea, reference compound] | – | – | – | – | – | – | – | – | – | weak
